Test results taken from US20260053932A1, “COMPOUNDS AND METHODS FOR THE TARGETED DEGRADATION OF ANDROGEN RECEPTOR AND ASSOCIATED METHODS OF USE” (Arvinas Operations, Inc., priority 2020, published 2026).
Where two headings read alike, the source gives them in different places.

Tested on: androgen receptor (AR) in LNCaP and/or VCaP cells
Assay: Androgen Receptor ELISA assay (AR degradation)
Format: cell-based
Outline: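 VCaP cells grown ≥3 days, then treated 5 h with compound in media containing 1 nM R1881 (10× stock). Cells lysed and AR quantified by sandwich ELISA (mouse AR detection Ab, HRP anti-mouse, TMB). DC50 and Dmax derived from AR degradation.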

[1] = degradation of AR ELISA in LNCaP and/or VCaP cells, Table 2C, read-out: DC50 Code*
[2] = LNCaP and/or VCaP cells, 5 hours incubation, media with R1881, read-out: DC50 Code* (degradation of AR ELISA)

Structure (SMILES) | DC50 [1] [nM] | DC50 [2] [nM]
CCOc1cc(O[C@H]2C(C)(C)[C@H](NC(=O)c3cnc(N4CC(CN(C(C)C)[C@H]5C[C@H](Oc6ccc7c(c6)C(=O)N(C6CCC(=O)NC6=O)C7=O)C5)C4)cn3)C2(C)C)ccc1C#N (stereo partly shown) [compound 134, N-((1r,3r)-3-(4-cyano-3-ethoxyphenoxy)-2,2,4,4-tetramethylcyclobutyl)-5-(3-((((1r,3r)-3-((2-(2,6-dioxopiperidin-3-yl)-1,3-dioxoisoindolin-5-yl)oxy)cyclobutyl) (isopropyl)amino)methyl)azetidin-1-yl)pyrazine-2-carboxamide] | 1 to 10 | –
COc1cc(O[C@H]2C[C@H](N(C)CC3CCN(c4ccc(C(=O)N[C@H]5C(C)(C)[C@H](Oc6cc(C)c(C#N)c(C)c6)C5(C)C)cc4)CC3)C2)cc2c1C(=O)N(C1CCC(=O)NC1=O)C2=O (mixture of isomers) [compound 191, rac-N-((1r,3r)-3-(4-cyano-3,5-dimethylphenoxy)-2,2,4,4-tetramethylcyclobutyl)-4-(4-((((1r,3r)-3-((2-(2,6-dioxopiperidin-3-yl)-7-methoxy-1,3-dioxoisoindolin-5-yl)oxy)cyclobutyl) (methyl)amino)methyl)piperidin-1-yl)benzamide] | < 1 | –
N#Cc1ccc(O[C@H]2CC[C@H](NC(=O)c3ccc(N4CCC(CN5CCN(c6ccc7c(c6F)C(=O)N(C6CCC(=O)NC6=O)C7=O)CC5)CC4)nn3)CC2)cc1Cl (stereo partly shown) [Compound 49] | – | < 1
Cc1cc(O[C@H]2C(C)(C)[C@H](NC(=O)c3ccc(N4CCC(CN(C(C)C)[C@H]5C[C@H](Oc6ccc7c(c6)C(=O)N(C6CCC(=O)NC6=O)C7=O)C5)CC4)cc3)C2(C)C)cc(C)c1C#N (stereo partly shown) [compound 104, N-((1r,3r)-3-(4-cyano-3,5-dimethylphenoxy)-2,2,4,4-tetramethylcyclobutyl)-4-(4-((((1r,3r)-3-((2-(2,6-dioxopiperidin-3-yl)-1,3-dioxoisoindolin-5-yl)oxy)cyclobutyl)(isopropyl)amino)methyl)piperidin-1-yl)benzamide] | < 1 | –
COc1cc(O[C@H]2C(C)(C)[C@H](NC(=O)c3ccc(N4CC(CN(C(C)C)[C@H]5C[C@H](Oc6ccc7c(c6)C(=O)N(C6CCC(=O)NC6=O)C7=O)C5)C4)cc3)C2(C)C)ccc1C#N (mixture of isomers) [compound 176, rac-N-((1r,3r)-3-(4-cyano-3-methoxyphenoxy)-2,2,4,4-tetramethylcyclobutyl)-4-(3-((((1r,3r)-3-((2-(2,6-dioxopiperidin-3-yl)-1,3-dioxoisoindolin-5-yl)oxy)cyclobutyl) (isopropyl)amino)methyl)azetidin-1-yl)benzamide] | < 1 | –
COc1cc(O[C@H]2C[C@H](N(CC3CC4(C3)CN(c3cnc(C(=O)N[C@H]5C(C)(C)[C@H](Oc6cc(C)c(C#N)c(C)c6)C5(C)C)cn3)C4)C(C)C)C2)cc2c1C(=O)N(C1CCC(=O)NC1=O)C2=O (stereo partly shown) [compound 158, N-((1r,3r)-3-(4-cyano-3,5-dimethylphenoxy)-2,2,4,4-tetramethylcyclobutyl)-5-(6-((((1r,3r)-3-((2-(2,6-dioxopiperidin-3-yl)-7-methoxy-1,3-dioxoisoindolin-5-yl)oxy)cyclobutyl) (isopropyl)amino)methyl)-2-azaspiro[3.3]heptan-2-yl)pyrazine-2-carboxamide] | < 1 | –
CC(C)Oc1cc(O[C@H]2C[C@H](N(CC3CCN(c4cnc(C(=O)N[C@H]5CC[C@H](Oc6ccc(C#N)c(Cl)c6)CC5)cn4)CC3)C(C)C)C2)cc2c1C(=O)N(C1CCC(=O)NC1=O)C2=O (stereo partly shown) [Compound 44, N-((1r,4r)-4-(3-chloro-4-cyanophenoxy)cyclohexyl)-5-(4-((((1r,3r)-3-((2-(2,6-dioxopiperidin-3-yl)-7-isopropoxy-1,3-dioxoisoindolin-5-yl)oxy)cyclobutyl) (isopropyl)amino)methyl)piperidin-1-yl)pyrazine-2-carboxamide] | – | < 1
CC(C)N(CC1CCN(c2cnc(C(=O)N[C@H]3CC[C@H](Oc4ccc(C#N)c(Cl)c4)CC3)cn2)CC1)[C@H]1C[C@H](Oc2ccc3c(c2)C2(CC2)N(C2CCC(=O)NC2=O)C3=O)C1 (stereo partly shown) [Compound 65, N-((1r,4r)-4-(3-chloro-4-cyanophenoxy)cyclohexyl)-5-(4-((((1r,3r)-3-((2′-(2,6-dioxopiperidin-3-yl)-3′-oxospiro[cyclopropane-1,1′-isoindolin]-6′-yl)oxy)cyclobutyl) (isopropyl)amino)methyl)piperidin-1-yl)pyrazine-2-carboxamide] | – | < 1

The next lines start with the values.

DC50 [1] [nM] | DC50 [2] [nM] | Structure (SMILES)
< 1 | – | COCCN(CC1CCN(c2ccc(C(=O)N[C@H]3C(C)(C)[C@H](Oc4ccc(C#N)c(OC)c4)C3(C)C)cc2)CC1)[C@H]1C[C@H](Oc2cc(OC)c3c(c2)C(=O)N(C2CCC(=O)NC2=O)C3=O)C1 (stereo partly shown) [compound 94, N-((1r,3r)-3-(4-cyano-3-methoxyphenoxy)-2,2,4,4-tetramethylcyclobutyl)-4-(4-((((1r,3r)-3-((2-(2,6-dioxopiperidin-3-yl)-7-methoxy-1,3-dioxoisoindolin-5-yl)oxy)cyclobutyl)(2-methoxyethyl)amino)methyl)piperidin-1-yl)benzamide]
< 1 | – | COc1cc(O[C@H]2C[C@H](N(C)CC3CCN(c4cnc(C(=O)N[C@H]5C(C)(C)[C@H](Oc6cc(C)c(C#N)c(C)c6)C5(C)C)cn4)CC3)C2)cc2c1C(=O)N(C1CCC(=O)NC1=O)C2=O (mixture of isomers) [compound 218, rac-N-((1r,3r)-3-(4-cyano-3,5-dimethylphenoxy)-2,2,4,4-tetramethylcyclobutyl)-5-(4-((((1r,3r)-3-((2-(2,6-dioxopiperidin-3-yl)-7-methoxy-1,3-dioxoisoindolin-5-yl)oxy)cyclobutyl) (methyl)amino)methyl)piperidin-1-yl)pyrazine-2-carboxamide]
< 1 | – | COc1cc(O[C@H]2C[C@H](N(CC3CCN(c4ncc(C(=O)N[C@H]5C(C)(C)[C@H](Oc6cc(C)c(C#N)c(C)c6)C5(C)C)cn4)CC3)C(C)=O)C2)cc2c1C(=O)N(C1CCC(=O)NC1=O)C2=O (stereo partly shown) [compound 81, N-((1r,3r)-3-(4-cyano-3,5-dimethylphenoxy)-2,2,4,4-tetramethylcyclobutyl)-2-(4-((N-((1r,3r)-3-((2-(2,6-dioxopiperidin-3-yl)-7-methoxy-1,3-dioxoisoindolin-5-yl)oxy)cyclobutyl)acetamido)methyl)piperidin-1-yl)pyrimidine-5-carboxamide]
< 1 | – | COc1cc(O[C@H]2C(C)(C)[C@H](NC(=O)c3cnc(N4CC5(CC(CN(C(C)C)[C@H]6C[C@H](Oc7ccc8c(c7)C(=O)N(C7CCC(=O)NC7=O)C8=O)C6)C5)C4)cn3)C2(C)C)ccc1C#N (stereo partly shown) [compound 122, N-((1r,3r)-3-(4-cyano-3-methoxyphenoxy)-2,2,4,4-tetramethylcyclobutyl)-5-(6-((((1r,3r)-3-((2-(2,6-dioxopiperidin-3-yl)-1,3-dioxoisoindolin-5-yl)oxy)cyclobutyl) (isopropyl)amino)methyl)-2-azaspiro[3.3]heptan-2-yl)pyrazine-2-carboxamide]
– | > 100 | COc1cc(O[C@H]2C[C@H](N(CC3CCN(c4ncc(C(=O)NC5CC6CC(Oc7cc(C)c(C#N)c(C)c7)CC6C5)cn4)CC3)C(C)C)C2)cc2c1C(=O)N(C1CCC(=O)NC1=O)C2=O (stereo partly shown) [Compound 2, N-(5-(4-cyano-3,5-dimethylphenoxy)octahydropentalen-2-yl)-2-(4-((((1r,3r)-3-((2-(2,6-dioxopiperidin-3-yl)-7-methoxy-1,3-dioxoisoindolin-5-yl)oxy)cyclobutyl) (isopropyl)amino)methyl)piperidin-1-yl)pyrimidine-5-carboxamide]
